In patent US8343990B2, “Substituted cyclopropyl compounds, compositions containing such compounds and methods of treatment” (Merck Sharp & Dohme Corp., priority 2008, dated 2013) one finds EC50 data, which are given here for 20 molecules.

This assay concerns the target T1, GPR119 receptor (UniProt Q8TDV5, S309L, species not given).
T1 sequence (Q8TDV5 1-335 S309L): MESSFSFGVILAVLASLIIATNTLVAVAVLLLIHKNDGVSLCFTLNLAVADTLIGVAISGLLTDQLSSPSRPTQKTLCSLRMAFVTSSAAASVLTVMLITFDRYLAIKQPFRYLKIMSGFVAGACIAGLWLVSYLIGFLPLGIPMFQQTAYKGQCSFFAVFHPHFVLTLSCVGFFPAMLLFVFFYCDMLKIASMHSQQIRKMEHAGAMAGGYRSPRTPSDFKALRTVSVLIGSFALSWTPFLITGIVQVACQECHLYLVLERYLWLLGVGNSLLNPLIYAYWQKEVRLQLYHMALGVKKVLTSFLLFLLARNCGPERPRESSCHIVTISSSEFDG
In words: GPR119 signaling, cyclic AMP (cAMP) homogenous time resolved fluorescence (HTRF) assay. Type of assay: cell-based. To be noted: CHO cells with Gα15 and murine GPR119, or HEK293 Flp-In cells with human GPR119 S309L; table does not say which; read-out: Activity: inflection points, denoted as EC50 values (agonist activation of GPR119, cAMP). In short, it runs like this:
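Agonist-induced cAMP measured in CHO cells expressing Gα15 plus murine GPR119, or HEK293 Flp-In cells expressing human S309L variant. Suspended cells exposed to compound titration 60 min at room temperature, lysed, HTRF read after 60 min; EC50 and efficacy versus internal agonist from 4-parameter fit.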

pEC50: −log10 of the molar value.

`Fc1cnc(N2CCC(C3CC3CCOc3ccc(-n4ccnn4)cc3)CC2)nc1` (single isomer, unassigned) [Ex 83bS, cis-5-fluoro-2-[4-(2-{2-[4-(1H-1,2,3-triazol-1-yl)phenoxy]ethyl}cyclopropyl)piperidin-1-yl]pyrimidine]: the pEC50 is over 8.00.
With `Clc1cnc(N2CCC(C3CC3CCOc3ccc(-n4cnnn4)cc3)CC2)nc1` (single isomer, unassigned) [Ex 83cF, cis-5-chloro-2-[4-(2-{2-[4-(1H-tetrazol-1-yl)phenoxy]ethyl}cyclopropyl)piperidin-1-yl]pyrimidine] the figure was over 8.00.
With `Clc1cnc(N2CCC(C3CC3CCOc3ccc(-n4cnnn4)cc3)CC2)nc1` (single isomer, unassigned) [Ex 83cS, cis-5-chloro-2-[4-(2-{2-[4-(1H-tetrazol-1-yl)phenoxy]ethyl}cyclopropyl)piperidin-1-yl]pyrimidine] the figure was over 8.00.
With `Fc1cc(OCCC2CC2C2CCN(c3ncc(Cl)cn3)CC2)ccc1-n1cnnn1` (single isomer, unassigned) [Ex 83dF, cis-5-chloro-2-[4-(2-{2-[3-fluoro-4-(1H-tetrazol-1-yl)phenoxy]ethyl}cyclopropyl)piperidin-1-yl]pyrimidine] the figure was 7.30 to 8.00; with `Fc1cc(OCCC2CC2C2CCN(c3ncc(Cl)cn3)CC2)ccc1-n1cnnn1` (single isomer, unassigned) [Ex 83dS, cis-5-chloro-2-[4-(2-{2-[3-fluoro-4-(1H-tetrazol-1-yl)phenoxy]ethyl}cyclopropyl)piperidin-1-yl]pyrimidine], over 8.00.
For `Cc1nnc(-c2ccc(OCCC3CC3C3CCN(c4ncc(F)cn4)CC3)cc2F)o1` (single isomer, unassigned) [Ex 83eF, cis-5-fluoro-2-[4-(2-{2-[3-fluoro-4-(5-methyl-1,3,4-oxadiazol-2-yl)phenoxy]ethyl}cyclopropyl)piperidin-1-yl]pyrimidine], the pEC50 is 6.70 to 7.30.
Next, `Cc1nnc(-c2ccc(OCCC3CC3C3CCN(c4ncc(F)cn4)CC3)cc2F)o1` (single isomer, unassigned) [Ex 83eS, cis-5-fluoro-2-[4-(2-{2-[3-fluoro-4-(5-methyl-1,3,4-oxadiazol-2-yl)phenoxy]ethyl}cyclopropyl)piperidin-1-yl]pyrimidine]: over 8.00; `CS(=O)(=O)c1ccc(OCC[C@H]2C[C@@H]2C2CCN(c3ncc(Cl)cn3)CC2)cc1` [Ex 91, 5-chloro-2-[4-((1R,2R)-2-{2-[4-(methylsulfonyl)phenoxy]ethyl}cyclopropyl)piperidin-1-yl]pyrimidine]: 7.30 to 8.00; `O=C(NC1CC1)c1ccc(OCC[C@H]2C[C@@H]2C2CCN(c3ncc(Cl)cn3)CC2)cc1F` [Ex 93, 4-(2-{(1R,2R)-2-[1-(5-chloropyrimidin-2-yl)piperidin-4-yl]cyclopropyl}ethoxy)-N-cyclopropyl-2-fluorobenzamide]: over 8.00.
With `N#Cc1ccc(OCC[C@H]2C[C@@H]2C2CCN(c3ncc(Cl)cn3)CC2)cc1F` [Ex 94, 4-(2-{(1R,2R)-2-[1-(5-chloropyrimidin-2-yl)piperidin-4-yl]cyclopropyl}ethoxy)-2-fluorobenzonitrile] the figure was 6.70 to 7.30; with `Clc1cnc(N2CCC([C@H]3C[C@@H]3CCOc3ccc(-n4cncn4)cc3)CC2)nc1` [Ex 95, 5-chloro-2-[4-((1R,2R)-2-{2-[4-(1H-1,2,4-triazol-1-yl)phenoxy]ethyl}cyclopropyl)piperidin-1-yl]pyrimidine], 7.30 to 8.00.
As to `Cc1nnc(-c2ccc(OCC[C@H]3C[C@@H]3C3CCN(c4ncc(Cl)cn4)CC3)cc2F)o1` [Ex 96, 5-chloro-2-[4-((1R,2R)-2-{2-[3-fluoro-4-(5-methyl-1,3,4-oxadiazol-2-yl)phenoxy]ethyl}cyclopropyl)piperidin-1-yl)pyrimidine], the pEC50 was 7.30 to 8.00.
Take `Fc1cc(OCC[C@H]2C[C@@H]2C2CCN(c3ncc(Cl)cn3)CC2)ccc1-c1nnc(C2CC2)o1` [Ex 97, 5-chloro-2-[4-((1R,2R)-2-{2-[4-(5-cyclopropyl-1,3,4-oxadiazol-2-yl)-3-fluorophenoxy]ethyl}cyclopropyl)piperidin-1-yl]pyrimidine]: the pEC50 is 7.30 to 8.00.
For the molecule `CS(=O)(=O)c1ccc(OC[C@H]2C[C@@H]2CC2CCN(c3ncc(Cl)cn3)CC2)cc1` [Ex 103, 5-chloro-2-{4-[((1S,2S)-2-{[4-(methylsulfonyl)phenoxy]methyl}cyclopropyl)methyl]piperidin-1-yl}pyrimidine], the pEC50 is 7.30 to 8.00.
With `N#Cc1ccc(OC[C@@H]2C[C@H]2CC2CCN(c3ncc(Cl)cn3)CC2)cc1F` [Ex 105, 4-[((1R,2R)-2-{[1-(5-chloropyrimidin-2-yl)piperidin-4-yl]methyl}cyclopropyl)methoxy]-2-fluorobenzonitrile] the figure was under 6.70.
Next, `O=C(NC1CC1)c1ccc(OC[C@@H]2C[C@H]2CC2CCN(c3ncc(Cl)cn3)CC2)cc1F` [Ex 107, 4-[((1R,2R)-2-{[1-(5-chloropyrimidin-2-yl)piperidin-4-yl]methyl}cyclopropyl)methoxy]-N-cyclopropyl-2-fluorobenzamide]: 7.30 to 8.00.
Next, `O=C(NC1CC1)c1ccc(OC[C@H]2C[C@@H]2CC2CCN(c3ncc(Cl)cn3)CC2)cc1F` [Ex 108, 4-[((1S,2S)-2-{[1-(5-chloropyrimidin-2-yl)piperidin-4-yl]methyl}cyclopropyl)methoxy]-N-cyclopropyl-2-fluorobenzamide]: 7.30 to 8.00; `Cc1nnc(-c2ccc(OC[C@@H]3C[C@H]3CC3CCN(c4ncc(Cl)cn4)CC3)cc2F)o1` [Ex 109, 5-chloro-2-{4-[((1R,2R)-2-{[3-fluoro-4-(5-methyl-1,3,4-oxadiazol-2-yl)phenoxy]methyl}cyclopropyl)methyl]piperidin-1-yl}pyrimidine]: 6.70 to 7.30; `Cc1nnc(-c2ccc(OC[C@H]3C[C@@H]3CC3CCN(c4ncc(Cl)cn4)CC3)cc2F)o1` [Ex 110, 5-chloro-2-{4-[((1S,2S)-2-{[3-fluoro-4-(5-methyl-1,3,4-oxadiazol-2-yl)phenoxy]methyl}cyclopropyl)methyl]piperidin-1-yl}pyrimidine]: 7.30 to 8.00.
Take `NS(=O)(=O)c1ccc(OC[C@H]2C[C@@H]2CC2CCN(c3ncc(Cl)cn3)CC2)cc1` [Ex 112, 4-[((1S,2S)-2-{[1-(5-chloropyrimidin-2-yl)piperidin-4-yl]methyl}cyclopropyl)methoxy]benzenesulfonamide]: the pEC50 is 6.70 to 7.30.
